Results published in the supplement of paper PMC11061612.

Legend:
[1] = tested on: COR-L95 (Small Cell Lung Carcinoma); assay: Bliss excess, mean over the matrix (fraction); higher = more synergy
How it was run: (§1)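 Bliss excess equals the observed combination effect minus the expected value EA + EB − EA·EB, where EA and EB are the effects of each agent alone. Combination Emax is the second-highest inhibition within the matrix. Inhibition was scaled from CellTiter-Glo 2.0 luminescence, with 0 set by vehicle wells and 1 by blank wells, after 72 hours of two-drug dosing of cells plated in 1536-well plates.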

[2] = tested on: CTV-1 (T-Lymphoblastic Leukemia); assay: as above
How it was run: as §1

[3] = tested on: DMS-273 (Small Cell Lung Carcinoma); assay: as above
How it was run: as §1

[4] = tested on: NCI-H1299 (Non-Small Cell Lung Carcinoma); assay: as above
How it was run: as §1

[5] = tested on: NCI-H1781 (Lung Adenocarcinoma); assay: as above
How it was run: as §1

[6] = tested on: NCI-H1793 (Lung Adenocarcinoma); assay: as above
How it was run: as §1

NCI-H2369 (Mesothelioma) = assay: as above
How it was run: as §1

[7] = tested on: OCI-AML2 (Acute Myeloid Leukemia); assay: as above
How it was run: as §1

SN12C (Kidney Carcinoma) = assay: as above
How it was run: as §1

[8] = tested on: COR-L95 (Small Cell Lung Carcinoma); assay: combination Emax (second highest fraction inhibited in the dose matrix, 72 h); higher = more inhibition; extreme values may be limits of the assay
How it was run: as §1

[9] = tested on: DMS-273 (Small Cell Lung Carcinoma); assay: as above
How it was run: as §1

[10] = tested on: G-292-Clone-A141B1 (Osteosarcoma); assay: as above
How it was run: as §1

[11] = tested on: HPAC (Pancreatic Carcinoma); assay: as above
How it was run: as §1

IGR-1 (Melanoma) = assay: as above
How it was run: as §1

[12] = tested on: IHH-4 (Thyroid Gland Carcinoma); assay: as above
How it was run: as §1

[13] = tested on: NALM-6 (B-Lymphoblastic Leukemia); assay: as above
How it was run: as §1

[14] = tested on: NCI-H1781 (Lung Adenocarcinoma); assay: as above
How it was run: as §1

NCI-H2595 (Mesothelioma) = assay: as above
How it was run: as §1

[15] = tested on: OCI-AML2 (Acute Myeloid Leukemia); assay: as above
How it was run: as §1

[16] = tested on: TGBC24TKB (Biliary Tract Carcinoma); assay: as above
How it was run: as §1

Compound	Bliss excess [1]	Bliss excess [2]	Bliss excess [3]	Bliss excess [4]	Bliss excess [5]	Bliss excess [6]	Bliss excess (NCI-H2369 (Mesothelioma))	Bliss excess [7]	Bliss excess (SN12C (Kidney Carcinoma))	combination Emax [8]	combination Emax [9]	combination Emax [10]	combination Emax [11]	combination Emax (IGR-1 (Melanoma))	combination Emax [12]	combination Emax [13]	combination Emax [14]	combination Emax (NCI-H2595 (Mesothelioma))	combination Emax [15]	combination Emax [16]
CS(=O)(=O)CCNCc1ccc(-c2ccc3ncnc(Nc4ccc(OCc5cccc(F)c5)c(Cl)c4)c3c2)o1 [Lapatinib] + C[C@@H](Oc1cc(-c2cnn(C3CCNCC3)c2)cnc1N)c1c(Cl)ccc(F)c1Cl [Crizotinib] (first compound max 10 µM, 7x7, partner max 10 µM)	-0.0529	0.036	0.0146	-0.0677	-0.0715	-0.0351	-0.0253	-0.0813	-0.017	0.812	0.954	0.71	0.929	0.987	0.907	0.959	0.774	0.458	0.915	0.952
CC(=O)c1c(C)c2cnc(Nc3ccc(N4CCNCC4)cn3)nc2n(C2CCCC2)c1=O [Palbociclib] + CC1(C)CCC(CN2CCN(c3ccc(C(=O)NS(=O)(=O)c4ccc(NCC5CCOCC5)c([N+](=O)[O-])c4)c(Oc4cnc5[nH]ccc5c4)c3)CC2)=C(c2ccc(Cl)cc2)C1 [Venetoclax] (first compound max 10 µM, 7x7, partner max 1 µM)	-0.0581	0.0415	-0.0263	0.0231	-0.045	-0.0136	-0.0543	0.0188	-0.0525	0.709	0.351	0.0906	0.204	0.764	0.393	0.933	0.118	0.104	1	0.274
CC(=O)c1c(C)c2cnc(Nc3ccc(N4CCNCC4)cn3)nc2n(C2CCCC2)c1=O [Palbociclib] + Cc1c2c(nn1C)CSCc1cc(n(C)n1)CSc1cc(c3ccccc3c1)OCCCc1c(C(=O)O)n(C)c3c-2c(Cl)ccc13 [AZD5991] (first compound max 10 µM, 7x7, partner max 1 µM)	-0.0112	-0.0096	-0.0565	0.0018	-0.0608	-0.0299	-0.0593	0.004	-0.0358	0.196	0.94	0.161	0.329	0.818	0.411	0.846	0.403	0.225	0.955	0.585
CC(=O)c1c(C)c2cnc(Nc3ccc(N4CCNCC4)cn3)nc2n(C2CCCC2)c1=O [Palbociclib] + Cn1cnc2c(F)c(Nc3ccc(Br)cc3Cl)c(C(=O)NOCCO)cc21 [Selumetinib] (first compound max 10 µM, 7x7, partner max 10 µM)	-0.0843	0.0496	-0.0393	0.108	-0.0532	-0.012	-0.0483	0.0685	-0.0321	0.283	0.351	0.12	0.735	0.919	0.59	0.876	0.235	0.155	1	0.429
COc1cccc(OCCCN)c1-c1cc(Nc2cnc(C#N)cn2)n[nH]1 [Prexasertib] + C=CCn1c(=O)c2cnc(Nc3ccc(N4CCN(C)CC4)cc3)nc2n1-c1cccc(C(C)(C)O)n1 [AZD1775] (first compound max 1 µM, partner max 1 µM)	-0.0187	0.0364	0.0795	-0.0148	0.0258	-0.0045	-0.0074	0.0655	0.0613	0.736	0.984	0.32	0.792	0.708	0.99	0.934	0.736	0.307	1	0.896
COc1cccc(OCCCN)c1-c1cc(Nc2cnc(C#N)cn2)n[nH]1 [Prexasertib] + CCc1c2c(nc3ccc(O)cc13)-c1cc3c(c(=O)n1C2)COC(=O)[C@]3(O)CC [SN-38] (first compound max 1 µM, 7x7, partner max 0.3 µM)	-0.121	-0.0461	0.0356	-0.0161	-0.0105	-0.0209	0.0148	-0.0094	-0.0237	0.844	0.997	0.34	0.887	0.893	0.965	0.983	0.993	0.426	1	0.852
COc1cccc(OCCCN)c1-c1cc(Nc2cnc(C#N)cn2)n[nH]1 [Prexasertib] + CN(C)CCCOc1ccc(-c2ccc3ncc4c(c3c2)n(C2CCOCC2)c(=O)n4C)cn1 [AZD0156] (first compound max 1 µM, 7x7, partner max 1 µM)	-0.0723	-0.0108	-0.0183	-0.0332	-0.0803	-0.0227	-0.0016	-0.0276	-0.0387	0.644	0.923	0.33	0.795	0.466	0.901	0.923	0.45	0.1	1	0.863
COc1cccc(OCCCN)c1-c1cc(Nc2cnc(C#N)cn2)n[nH]1 [Prexasertib] + C[C@@H]1COCCN1C2=NC(=NC(=C2)C3(CC3)[S@](=N)(=O)C)C4=C5C=CNC5=NC=C4 [AZD6738] (first compound max 1 µM, 7x7, partner max 10 µM)	0.0074	-0.0725	-0.0374	-0.0013	0.006	-0.0106	-0.0274	-0.021	0.0012	0.675	0.916	0.325	0.769	0.566	0.862	0.943	0.486	0.141	1	0.918
COc1cccc(OCCCN)c1-c1cc(Nc2cnc(C#N)cn2)n[nH]1 [Prexasertib] + Cc1cc2ncnn2cc1Nc1ncc2c(n1)n(C1CCOCC1)c(=O)n2C [AZD7648] (first compound max 1 µM, 7x7, partner max 10 µM)	-0.102	-0.0495	-0.0121	-0.0577	0.0024	0.0257	-0.0252	-0.0211	-0.0816	0.644	0.909	0.295	0.816	0.508	0.947	0.943	0.468	0.159	1	0.827
COc1cccc(OCCCN)c1-c1cc(Nc2cnc(C#N)cn2)n[nH]1 [Prexasertib] + O=C(c1cc(Cc2n[nH]c(=O)c3ccccc23)ccc1F)N1CCN(C(=O)C2CC2)CC1 [Olaparib] (first compound max 1 µM, 7x7, partner max 10 µM)	-0.121	-0.122	-0.0009	-0.0694	-0.0036	-0.0106	-0.0284	-0.0242	-0.0425	0.682	0.919	0.3	0.593	0.566	0.789	0.96	0.631	0.23	1	0.835
COc1cc2c(cc1OCCCCCOc1cc3c(cc1OC)C(=O)N1C=C(C)C[C@H]1C=N3)N=C[C@@H]1CC(C)=CN1C2=O [SG3199] + O=C(c1cc(Cc2n[nH]c(=O)c3ccccc23)ccc1F)N1CCN(C(=O)C2CC2)CC1 [Olaparib] (first compound max 0.001 µM, 7x7, partner max 10 µM)	-0.0224	-0.013	0.002	-0.0381	-0.0305	-0.0323	-0.035	-0.0546	-0.0697	0.431	0.308	0.145	0.0597	0.187	0.193	0.459	0.45	0.0944	0.747	0.126
CCc1c2c(nc3ccc(O)cc13)-c1cc3c(c(=O)n1C2)COC(=O)[C@]3(O)CC [SN-38] + CN(C)CCCOc1ccc(-c2ccc3ncc4c(c3c2)n(C2CCOCC2)c(=O)n4C)cn1 [AZD0156] (first compound max 0.3 µM, 7x7, partner max 1 µM)	-0.0989	0.0414	0.0377	0.0495	0.0554	-0.026	-0.0001	0.0764	0.011	0.789	0.802	0.213	0.38	0.497	1	1	0.99	0.176	1	0.533
C[C@@H](c1ccc2nccn2c1)n1nnc2ncc(-c3cnn(C)c3)nc21 [Savolitinib] + CC1(C)CCC(CN2CCN(c3ccc(C(=O)NS(=O)(=O)c4ccc(NCC5CCOCC5)c([N+](=O)[O-])c4)c(Oc4cnc5[nH]ccc5c4)c3)CC2)=C(c2ccc(Cl)cc2)C1 [Venetoclax] (first compound max 1 µM, 7x7, partner max 1 µM)	0.0069	-0.0245	-0.0398	-0.0418	-0.0702	-0.0566	-0.058	-0.0246	-0.0152	0.586	0.239	0.0932	0.143	0.114	0.0656	0.316	0.208	0.227	0.93	0.215
C[C@@H](c1ccc2nccn2c1)n1nnc2ncc(-c3cnn(C)c3)nc21 [Savolitinib] + Cc1c2c(nn1C)CSCc1cc(n(C)n1)CSc1cc(c3ccccc3c1)OCCCc1c(C(=O)O)n(C)c3c-2c(Cl)ccc13 [AZD5991] (first compound max 1 µM, 7x7, partner max 1 µM)	-0.0171	-0.0223	-0.0356	-0.0519	-0.0293	-0.0351	-0.0527	-0.0167	-0.0535	0.163	0.933	0.138	0.168	0.223	0.0909	0.226	0.32	0.302	0.88	0.182
